A short description of test [1]: Changes in MIC under different conditions: Broth MIC. In kind it is cell-based. The following applies: strain not given.
Test [2] is described as follows: Changes in MIC under different conditions: Agar MIC. In kind it is cell-based. The note with it: strain not given. As for the experimental part:
(§1) The compounds of the invention display antibacterial activity when tested by the agar incorporation method. The following minimum inhibitory concentrations (μg/ml) were obtained for representative compounds of the invention which are given below in the following tables.
(§2) Briefly, the compounds were dissolved in DMSO and doubling dilution of the compounds were incorporated into Meuller Hilton agar before solidification. Inoculum was prepared by suspending 4 to 5 colonies into 5 ml of normal saline solution and adjusting the turbidity to 0.5 Macfarland turbidity standard tables (1.5×10^8 CFU/ml), after appropriate dilutions, 10^4 CFU/spot was transfered into the surface of dried plate and incubated for 18 hours (24 hours for MRSN studies). The concentration showing no growth of the inoculated culture was recorded as the MIC. Appropriate ATCC standard strains were simultaneously tested and result recorded only when the MIC's against standard antibiotics were within the acceptable range.

The subject of a further test is VRE 6A. Kind of test: MIC, agar incorporation method. It is filed as cell-based, Enterococcus faecium. The gist of the method: (§3)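 Compounds in DMSO were added as doubling dilutions to molten Mueller Hinton agar. Spots of 10^4 CFU, diluted from a 0.5 McFarland suspension (1.5×10^8 CFU/ml), were incubated 18 hours (24 hours for MRSN studies). MIC (μg/ml) is the lowest concentration with no visible growth.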

For another test, the system named is S. pyogenes 19615. Kind of test: MIC, agar incorporation method. In kind it is cell-based, Streptococcus pyogenes. In a few lines:
as §3

The next test has as its system MRSA 33. Kind of test: MIC, agar incorporation method. In kind it is cell-based, Staphylococcus aureus. The gist of the method: (§4)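 Agar incorporation: DMSO-dissolved compounds in doubling dilutions set into Mueller Hinton agar; 10^4 CFU/spot inoculum from a 0.5 McFarland suspension. Incubated 18 h (24 h for MRSN). MIC taken as lowest concentration with no growth, accepted only when ATCC control strains were in range.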

The subject of another test is S. pneum AB 34. Kind of test: MIC, agar incorporation method. In kind it is cell-based, Streptococcus pneumoniae. In a few lines:
as §4

The next test concerns S. pneum 6303. Kind of test: MIC, agar incorporation method. In kind it is cell-based, Streptococcus pneumoniae. In a few lines: as §3
The subject of another test is S. aureus 25923. Kind of test: MIC, agar incorporation method. In kind it is cell-based, Staphylococcus aureus. In a few lines: as §3
The next test has as its system MRSA 15187. Kind of test: MIC, agar incorporation method. In kind it is cell-based, Staphylococcus aureus. The gist of the method: as §3
The subject of a further test is E. faecalis 29212. Kind of test: MIC, agar incorporation method. It is filed as cell-based, Enterococcus faecalis. In a few lines:
as §3

The test system of the next test is S. pneumoniae. Kind of test: Summary of in vitro activity (MIC) against S. pneumoniae. The note with it: Streptococcus pneumoniae; for MIC: read-out: Geometric Mean of in vitro activity (MIC). In kind it is cell-based, Streptococcus pneumoniae. As for the experimental part:
as §1, §2

The test system of a further test is E. faecalis. Kind of test: Summary of in vitro activity (MIC) against E. faecalis. In kind it is cell-based, Enterococcus faecalis. The note with it: Enterococcus faecalis; for MIC: read-out: Geometric Mean of in vitro activity (MIC). As for the experimental part: as §1, §2
The test system of a further test is MRSA 562. Kind of test: MIC, agar incorporation method. It is filed as cell-based, Staphylococcus aureus. The gist of the method:
as §4

Another test has as its system G+ve. Kind of test: Summary of in vitro activity (MIC) against G+ve bacteria. It is filed as cell-based. The following applies: for MIC: read-out: Geometric Mean of in vitro activity (MIC). As to the method: as §1, §2
Another test relates to S. aureus. Kind of test: Summary of in vitro activity (MIC) against S. aureus. In kind it is cell-based, Staphylococcus aureus. The note with it: Staphylococcus aureus; for MIC: read-out: Geometric Mean of in vitro activity (MIC). As to the method: as §1, §2

SMILES strings stand for the structures. ≈ marks a conversion by molar mass, not a printed value. Like-named read-outs stand apart in the source and are kept apart here.

Take `CC(=O)NC[C@H]1CN(c2ccc(N3CCN(Cc4ccc([N+](=O)[O-])o4)CC3)c(F)c2)C(=O)O1.Cl` [Compound No. 16]: in [1], the “Broth MIC +50% Sheep serum” value stood at 2 µg/mL. For the same compound, the “Broth MIC Normal MH broth” value in [1] stood at 2 µg/mL. The “Agar MIC” value in test [2] amounted to 2 µg/mL. The minimum inhibitory concentration (MIC) – broadly, the least concentration at which growth counts as inhibited – against VRE 6A (VRE 6A, agar incorporation) was found to be 4 µg/mL; in the test on S. pyogenes 19615 (S. pyogenes 19615, agar incorporation), 0.5 µg/mL; against MRSA 33 (MRSA 33, agar incorporation) it was 4 µg/mL; with S. pneum AB 34 (S. pneum AB 34, agar incorporation), 1 µg/mL; in the test on S. pneum 6303 (S. pneum 6303, agar incorporation) it was 1 µg/mL; against S. aureus 25923 (S. aureus 25923, agar incorporation), 2 µg/mL. Also, the MIC turned out to be 4 µg/mL against MRSA 15187 (MRSA 15187, agar incorporation) and 2 µg/mL in the test on E. faecalis 29212 (E. faecalis 29212, agar incorporation).

For the compound `CC(=O)NC[C@H]1CN(c2ccc(N3CCOCC3)c(F)c2)C(=O)O1` [Linezolid, reference compound], in test [1], the “Broth MIC +50% Sheep serum” value turned out to be 2 µg/mL. Also, the “Broth MIC Normal MH broth” value in test [1] came out at 1 µg/mL. In addition, the MIC50 (as a rule, the lowest concentration that inhibits either 50% of growth or 50% of the strains tested, depending on the study) in the test on S. pneumoniae (S. pneumoniae, Number 19, read-out: MIC50) was found to be 0.5 µg/mL (≈ 1.48 µM); in the test with E. faecalis (E. faecalis, Number 7, read-out: MIC50), 4 µg/mL (≈ 11.9 µM); in the test with G+ve (G+ve, Number 49, read-out: MIC50), 2 µg/mL (≈ 5.93 µM); in the test with S. aureus (S. aureus, Number 8, read-out: MIC50), 2 µg/mL (≈ 5.93 µM). Moreover, the MIC90 (as a rule, an inhibitory concentration at the 90% level, which refers to growth in some studies and to a panel of isolates in others) with S. pneumoniae (S. pneumoniae, Number 19, read-out: MIC90) is 2 µg/mL (≈ 5.93 µM); in the test on E. faecalis (E. faecalis, Number 7, read-out: MIC90), 16 µg/mL (≈ 47.4 µM); in the test on G+ve (G+ve, Number 49, read-out: MIC90), 4 µg/mL (≈ 11.9 µM); in the test on S. aureus (S. aureus, Number 8, read-out: MIC90) it was 4 µg/mL (≈ 11.9 µM). The MIC in the test with S. pneumoniae (S. pneumoniae) was determined as 0.6 µg/mL (≈ 1.78 µM); in the test with E. faecalis (E. faecalis), 4 µg/mL (≈ 11.9 µM); in the test with VRE 6A (Enterococcus, VRE 6A, agar incorporation, read-out: MIC) it was 2 µg/mL (≈ 5.93 µM); in the test on S. pyogenes 19615 (Streptococcus pyogenes, S. pyogenes 19615, agar incorporation, read-out: MIC), 2 µg/mL (≈ 5.93 µM); against MRSA 562 (MRSA 562, Table 5), 2 µg/mL (≈ 5.93 µM); with MRSA 562 (Staphylococcus aureus, MRSA 562, agar incorporation, Table 1, read-out: MIC) it was 2 µg/mL (≈ 5.93 µM). In addition, the MIC in the test with MRSA 33 (Staphylococcus aureus, MRSA 33, agar incorporation, read-out: MIC) stood at 2 µg/mL (≈ 5.93 µM); in the test with S. pneum AB 34 (Streptococcus pneumoniae, AB34, S. pneum AB 34, agar incorporation, read-out: MIC), 4 µg/mL (≈ 11.9 µM); in the test with G+ve (Gram +ve), 1.25 µg/mL (≈ 3.71 µM); in the test with S. pneum 6303 (Streptococcus pneumoniae, S. pneum 6303, agar incorporation, read-out: MIC) it was 2 µg/mL (≈ 5.93 µM); with S. aureus (S. aureus), 2.38 µg/mL (≈ 7.05 µM); with S. aureus 25923 (Staphylococcus aureus, S. aureus 25923, agar incorporation, read-out: MIC), 2 µg/mL (≈ 5.93 µM). Further, the minimum inhibitory concentration (MIC) was 1 µg/mL (≈ 2.96 µM) with MRSA 15187 (Staphylococcus aureus, MRSA 15187, agar incorporation, read-out: MIC) and 2 µg/mL (≈ 5.93 µM) in the test with E. faecalis 29212 (Enterococcus faecalis, E. faecalis 29212, agar incorporation, read-out: MIC). The “Agar MIC” value in [2] was found to be 2 µg/mL.

`CN[C@H](CC(C)C)C(=O)N[C@H]1C(=O)N[C@@H](CC(N)=O)C(=O)N[C@H]2C(=O)N[C@H]3C(=O)N[C@H](C(=O)N[C@H](C(=O)O)c4cc(O)cc(O)c4-c4cc3ccc4O)[C@H](O)c3ccc(c(Cl)c3)Oc3cc2cc(c3O[C@@H]2O[C@H](CO)[C@@H](O)[C@H](O)[C@H]2O[C@H]2C[C@](C)(N)[C@H](O)[C@H](C)O2)Oc2ccc(cc2Cl)[C@H]1O` [Vancomycin, reference compound]: the “Broth MIC +50% Sheep serum” value in [1] was found to be 1 µg/mL. Further, in [1], the “Broth MIC Normal MH broth” value came out at 1 µg/mL. In addition, the MIC50 with S. pneumoniae was determined as 0.5 µg/mL (≈ 0.345 µM); with E. faecalis, 16 µg/mL (≈ 11 µM); in the test on G+ve it was 0.5 µg/mL (≈ 0.345 µM); against S. aureus, 1 µg/mL (≈ 0.69 µM). Further, the MIC90 turned out to be 0.5 µg/mL (≈ 0.345 µM) with S. pneumoniae, 16 µg/mL (≈ 11 µM) in the test with E. faecalis, 16 µg/mL (≈ 11 µM) against G+ve and 1 µg/mL (≈ 0.69 µM) in the test with S. aureus. Moreover, the MIC was 0.39 µg/mL (≈ 0.269 µM) with S. pneumoniae; 9.75 µg/mL (≈ 6.73 µM) in the test on E. faecalis; more than 16 µg/mL in the test with VRE 6A (Enterococcus, VRE); 0.5 µg/mL (≈ 0.345 µM) against S. pyogenes 19615 (Streptococcus pyogenes, 19615); 0.5 µg/mL (≈ 0.345 µM) with MRSA 562 (MRSA 562, Table 5); 0.5 µg/mL (≈ 0.345 µM) against MRSA 562 (Staphylococcus aureus, MRSA). Moreover, the minimum inhibitory concentration (MIC) amounted to 0.5 µg/mL (≈ 0.345 µM) against MRSA 33 (Staphylococcus aureus, MRSA); 0.25 µg/mL (≈ 0.173 µM) against S. pneum AB 34 (Streptococcus pneumoniae, AB34); 0.93 µg/mL (≈ 0.642 µM) in the test with G+ve; 0.5 µg/mL (≈ 0.345 µM) against S. pneum 6303 (Streptococcus pneumoniae, 6303); 1 µg/mL (≈ 0.69 µM) with S. aureus; 1 µg/mL (≈ 0.69 µM) in the test with S. aureus 25923 (Staphylococcus aureus, 25923). The MIC in the test with MRSA 15187 (Staphylococcus aureus, MRSA) worked out at 0.5 µg/mL (≈ 0.345 µM); against E. faecalis 29212 (Enterococcus faecalis, 29212), 4 µg/mL (≈ 2.76 µM). In test [2], the “Agar MIC” value worked out at 1 µg/mL.

The record behind these values is patent US6956040B2, “Oxazolidinone piperazinyl derivatives as potential antimicrobials” (Ranbaxy Laboratories Limited, priority 2001, dated 2005).
